Reference: patent US20250154169A1, “COMPOUNDS AND METHODS FOR MODULATING SPLICING” (REMIX THERAPEUTICS INC., priority 2021, published 2025)
Read-outs that look alike come from different tables or passages of the source. Each block holds one compound with its values, some of them ahead of it.

Legend:
Type in all cases: cell-based, human
HTT mRNA [1] = test: Splicing RT-qPCR assay, HTT canonical (CJ) and alternative (AJ) junction mRNA; conditions: Homo sapiens, A673 or K562 cells, 24 hours compound treatment; for IC50: 24 h, read-out: HTT CJ (IC50, decrease in canonical junction mRNA); for AC50: read-out: HTT AJ (AC50, increase in alternative junction mRNA)
Method in brief: (§1)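 Canonical (CJ) and alternative-exon (AJ) junction mRNAs quantified by one-step RT-qPCR in cell lysates, normalized to housekeeping PPIA for A673 and GAPDH or GUSB for K562. Cells were exposed 24 h at 37 °C to 11-point 3-fold compound series from 10 uM final, with DMSO at or below 0.25%.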

MYB mRNA = test: Splicing RT-qPCR assay, MYB canonical (CJ) and alternative (AJ) junction mRNA; conditions: Homo sapiens; for AC50: read-out: MYB AJ (AC50, increase in alternative junction mRNA)
Method in brief: as §1

SMN2 mRNA = test: Splicing RT-qPCR gene panel, SMN2 canonical junction (CJ) mRNA; conditions: Homo sapiens, Tables 4A/4B, read-out: SMN2 (IC50, decrease in CJ mRNA, gene panel)
Experimental: (§2) Compounds described herein were used to modulate RNA transcript abundance in cells. The expression of a target mRNA was measured by detecting the formation of an exon-exon junction in the canonical transcript (CJ). A compound mediated exon-inclusion event was detected by observing an increase in formation of a new junction with an alternative exon (AJ). Real-time qPCR assays were used to detect these splicing switches and interrogate the potency of various compounds towards different target genes. A high-throughput real time quantitative PCR (RT-qPCR) assay was developed to measure these two isoforms of the mRNA (CJ and AJ) for exemplary genes, such as HTT, SMN2, and MYB, together with a control housekeeping gene, GAPDH or GUSB or PPIA, used for normalization. Briefly, the A673 or K562 cell line was treated with various compounds described herein (e.g., compounds of Formula (I)). After treatment, the levels of the HTT, MYB, or SMN2 mRNA targets were determined from each sample of cell lysate by cDNA synthesis followed by qPCR.
(§3) The A673 cell line was cultured in DMEM with 10% FBS. Cells were diluted with full growth media and plated in a 96-well plate (15,000 cells in 100 ul media per well). The plate was incubated at 37° C. with 5% CO2 for 24 hours to allow cells to adhere. An 11-point 3-fold serial dilution of the compounds was made in DMSO then diluted in media in an intermediate plate. Compounds were transferred from the intermediate plate to the cell plate with the top dose at a final concentration of 10 uM in the well. Final DMSO concentration was kept at or below 0.25%. The cell plate was returned to the incubator at 37° C. with 5% CO2 for an additional 24 hours.
(§4) The K562 cell line was cultured in IMDM with 10% FBS. For K562, cells were diluted with full growth media and plated in either a 96-well plate (50,000 cells in 50 uL media per well) or a 384-well plate (8,000-40,000 cells in 45 uL media per well). An 11-point 3-fold serial dilution of the compounds were made in DMSO then diluted in media in an intermediate plate. Compound was transferred from the intermediate plate to the cell plate with the top dose at a final concentration of 10 uM in the well. Final DMSO concentration was kept at or below 0.25%. Final volume was 100 uL for 96-well plate and 50 uL for 384-well plate. The cell plate was then placed in an incubator at 37° C. with 5% CO2 for 24 hours.
(§5) The cells were then gently washed with 50 uL-100 uL cold PBS before proceeding to addition of lysis buffer. 30 uL-50 uL of room temperature lysis buffer with DNAse I (and optionally RNAsin) was added to each well. Cells were shaken/mixed thoroughly at room temperature for 5-10 minutes for lysis to take place and then 3 uL-5 uL of room temperature stop solution was added and wells were shaken/mixed again. After 2-5 minutes, the cell lysate plate was transferred to ice for RT-qPCR reaction setup. The lysates could also be frozen at −80° C. for later use.
(§6) In some cases, a direct lysis buffer was used. An appropriate volume of 3× lysis buffer (10 mM Tris, 150 mM NaCl, 1.5%-2.5% Igepal and 0.1-1 U/uL RNAsin, pH 7.4) was directly added to either K562 or A673 cells in media and mixed by pipetting 3 times. The plates were then incubated at room temperature with shaking/rocking for 20-50 minutes to allow for lysis to take place. After this time, the cell lysate plate was transferred to ice to set up for the RT-qPCR reactions. The lysates could also be frozen at −80° C. for later use.
(§7) To set up 10 uL RT-qPCR reactions, cell lysates were transferred to 384-well qPCR plates containing the master mix according to the table below. The plates were sealed, gently vortexed, and spun down before the run. The volumes were adjusted accordingly in some instances where the reaction was carried in 20 μL. The table below summarizes the components of the RT-qPCR reactions:
(§8) The RT-qPCR reaction was performed using a QuantStudio (ThermoFisher) under the following fast cycling conditions. […]

Target C mRNA = test: Splicing RT-qPCR gene panel, Target C canonical junction (CJ) mRNA; conditions: Homo sapiens, Tables 4A/4B, read-out: Target C (IC50, decrease in CJ mRNA, gene panel)
Experimental: as §2, §3, §4, §5, §6, §7, §8

HTT mRNA [2] = test: Splicing RT-qPCR gene panel, HTT canonical junction (CJ) mRNA; conditions: Homo sapiens, Tables 4A/4B, read-out: HTT (IC50, decrease in CJ mRNA, gene panel)
Experimental: as §2, §3, §4, §5, §6, §7, §8

[3] = 24 h, A673 or K562 cells, 24 hours compound treatment, RT-qPCR
[4] = 24 h, A673 or K562 cells, 24 hours compound treatment, RT-qPCR, read-out: MYB CJ (IC50, decrease in canonical junction mRNA)
[5] = Tables 4A/4B, canonical junction qPCR panel, read-out: MYB (IC50, decrease in CJ mRNA, gene panel)

Structure (SMILES): Cc1cn2cc(NC(=O)c3ccc(N4CCNCC4)c4cn(Cc5cncnc5)nc34)cc(F)c2n1 [Compound 318, N-{8-fluoro-2-methylimidazo[1,2-a]pyridin-6-yl}-4-(piperazin-1-yl)-2-(pyrimidin-5-ylmethyl)indazole-7-carboxamide]
IC50 (HTT mRNA [1]): > 10000 nM
AC50 (HTT mRNA [1]): > 10000 nM
AC50 (MYB mRNA; [3]): 100 to 1000 nM
IC50 (MYB mRNA; [4]): 100 to 1000 nM
IC50 (MYB mRNA; [5]): 100 to 1000 nM
IC50 (SMN2 mRNA): < 100 nM
IC50 (Target C mRNA): > 10000 nM
IC50 (HTT mRNA [2]): > 10000 nM

Structure (SMILES): CNC1CCN(c2ccc(C(=O)Nc3cc(F)c4nc(C)cn4c3)c3nn(C)cc23)C1 (stereo in doubt) [Compound 388, (S)—N-(8-fluoro-2-methylimidazo[1,2-a]pyridin-6-yl)-2-methyl-4-(3-(methylamino)pyrrolidin-1-yl)-2H-indazole-7-carboxamide]
IC50 (HTT mRNA [1]): 1000 to 10000 nM
AC50 (HTT mRNA [1]): 1000 to 10000 nM
IC50 (MYB mRNA; [5]): < 100 nM
IC50 (SMN2 mRNA): < 100 nM
IC50 (Target C mRNA): > 10000 nM
IC50 (HTT mRNA [2]): > 10000 nM

Structure (SMILES): Cc1nnc2n1CC(NC(=O)c1ccc(N3CCNCC3)c3cn(C)nc13)CC2 (stereo not drawn) [Compound 470, 2-methyl-N-{3-methyl-5H,6H,7H,8H-[1,2,4]triazolo[4,3-a]pyridin-6-yl}-4-(piperazin-1-yl) indazole-7-carboxamide]
IC50 (HTT mRNA [1]): > 10000 nM
AC50 (HTT mRNA [1]): > 10000 nM
AC50 (MYB mRNA; [3]): > 10000 nM
IC50 (MYB mRNA; [4]): > 10000 nM
IC50 (MYB mRNA; [5]): > 10000 nM
IC50 (SMN2 mRNA): > 10000 nM
IC50 (Target C mRNA): > 10000 nM
IC50 (HTT mRNA [2]): > 10000 nM

Structure (SMILES): Cc1cn2cc(NC(=O)c3ccc(N4CCNCC4)c4cc(C)oc34)c(C)cc2n1 [Compound 262]
IC50 (HTT mRNA [1]): 1000 to 10000 nM
AC50 (HTT mRNA [1]): 1000 to 10000 nM
AC50 (MYB mRNA; [3]): 100 to 1000 nM
IC50 (MYB mRNA; [4]): 100 to 1000 nM
IC50 (MYB mRNA; [5]): 100 to 1000 nM
IC50 (SMN2 mRNA): < 100 nM
IC50 (Target C mRNA): > 10000 nM
IC50 (HTT mRNA [2]): 1000 to 10000 nM

Second part, led by results:

IC50 (HTT mRNA [1]): 100 to 1000 nM
IC50 (MYB mRNA; [4]): 100 to 1000 nM
IC50 (MYB mRNA; [5]): 100 to 1000 nM
IC50 (SMN2 mRNA): 100 to 1000 nM
IC50 (Target C mRNA): 100 to 1000 nM
IC50 (HTT mRNA [2]): 100 to 1000 nM
Structure (SMILES): CCn1cc2c(N3CCN4C(=O)OCC4C3)ccc(C(=O)Nc3cc(F)c4nc(C)cn4c3)c2n1 (stereo not drawn) [Compound 415, 2-ethyl-N-{8-fluoro-2-methylimidazo[1,2-a]pyridin-6-yl}-4-{3-oxo-tetrahydro-1H-[1,3]oxazolo[3,4-a]pyrazin-7-yl}indazole-7-carboxamide]
AC50 (HTT mRNA [1]): 100 to 1000 nM
AC50 (MYB mRNA; [3]): 100 to 1000 nM

IC50 (HTT mRNA [1]): 1000 to 10000 nM
IC50 (MYB mRNA; [4]): < 100 nM
IC50 (MYB mRNA; [5]): < 100 nM
IC50 (SMN2 mRNA): < 100 nM
IC50 (Target C mRNA): > 10000 nM
IC50 (HTT mRNA [2]): 1000 to 10000 nM
Structure (SMILES): Cc1cn2cc(NC(=O)c3ccc(N4CCNCC4)c4cn(CC#N)nc34)cc(F)c2n1 [Compound 413, 2-(cyanomethyl)-N-{8-fluoro-2-methylimidazo[1,2-a]pyridin-6-yl}-4-(piperazin-1-yl) indazole-7-carboxamide]
AC50 (HTT mRNA [1]): 1000 to 10000 nM
AC50 (MYB mRNA; [3]): < 100 nM

IC50 (HTT mRNA [1]): 100 to 1000 nM
IC50 (MYB mRNA; [4]): < 100 nM
IC50 (MYB mRNA; [5]): < 100 nM
IC50 (SMN2 mRNA): < 100 nM
IC50 (Target C mRNA): 1000 to 10000 nM
IC50 (HTT mRNA [2]): 100 to 1000 nM
Structure (SMILES): CNC1CCN(c2ccc(C(=O)Nc3cc(F)c4nc(C)cn4c3)c3nn(C)cc23)CC1 [Compound 448, N-{8-fluoro-2-methylimidazo[1,2-a]pyridin-6-yl}-2-methyl-4-[4-(methylamino)piperidin-1-yl]indazole-7-carboxamide]
AC50 (HTT mRNA [1]): 1000 to 10000 nM
AC50 (MYB mRNA; [3]): < 100 nM
